# Assay results reported in patent US20230102379A1 (priority 2020, published 2023).
# Entries after “also recorded” stand apart in the source; their conditions may differ. Where two headings read alike, the source gives them in different places.
# Columns and labels:
# [1] = system: Xylella fastidiosa; assay type: cell-based; settings: for diameter of inhibition: highest dose tested (2.12 μmol)
# [2] = system: L. crescens; assay type: cell-based, Liberibacter crescens
# [3] = system: Xf; settings: cited from earlier work
# [4] = system: E. coli; settings: cited from earlier work
# [5] = system: Micrococcus luteus; settings: cited from earlier work
# [6] = system: Vibrio harveyi; settings: cited from earlier work
# [7] = system: MRSA; settings: cited from earlier work
# [8] = system: Bacillus megaterium; settings: agar diffusion; cited from earlier work
# [9] = system: E. coli; settings: agar diffusion; cited from earlier work
# [10] = system: transcriptional accessory protein; settings: cited from earlier work
# [11] = system: L. crescens; settings: cited from earlier work
structure (smiles),measurement,setting,value
C/C=C/C(=O)n1nnc2ccccc21,melting point,,91 to 93 °C
"C/C=C/c1cc2c(c(=O)o1)C(=O)CC(C)O2 (racemic) [Compound 2, (E)-2-methyl-7-(prop-1-en-1-yl)-2,3-dihydropyrano[4,3-b]pyran-4,5-dione]",inhibition of Xf (in words),[1],"consistent, somewhat linear relationship between compound dose and antibacterial response; also recorded: more potent than 1; also recorded: potent inhibitor"
same,inhibition of Xf (in words),[1]; listed as deoxyradicinin,low micromolar inhibitor
same,inhibition of L. crescens (in words),[2],notable linear relationships between compound dose and antibacterial response; also recorded: most potent inhibitor of L. crescens tested; also recorded: potently inhibit; also recorded: potent inhibitor
same,inhibition of L. crescens (in words),[2]; dose 1.06 μmol and higher,complete inhibition
same,inhibition of L. crescens (in words),[2]; listed as deoxyradicinin,nanomolar inhibitor
same,diameter of inhibition,[2]; lowest tested dose of 0.053 μmol,4.0 cm
"CCCc1cc2c(c(=O)o1)C(=O)CC(C)O2 (racemic) [Compound 3, 2-methyl-7-propyl-2,3-dihydropyrano[4,3-b]pyran-4,5-dione]",dose at which activity is shown,[1],greater than 0.53 μmol
same,diameter of inhibition,[1],3.4 cm
same,inhibition of L. crescens (in words),[2],notable linear relationships between compound dose and antibacterial response
"C/C=C/c1cc2c(c(=O)o1)C(=O)C[C@H](C)O2 (single isomer, unassigned) [(−)-2, (−)-deoxyradicinin]",inhibition of L. crescens (in words),[2],potently inhibit
"C/C=C/c1cc2c(c(=O)o1)C(=O)CC(C)O2 (single isomer, unassigned; (+)) [(+)-2, (+)-deoxyradicinin]",inhibition of L. crescens (in words),[2],potently inhibit
"C/C=C/c1cc2c(c(=O)o1)C(=O)[C@@H](O)[C@H](C)O2 [Compound 1, radicinin]",inhibition of Xf (in words),[1],"consistent, somewhat linear relationship between compound dose and antibacterial response"
same,diameter of inhibition,[1],10 cm
same,inhibition of L. crescens (in words),[2],notable linear relationships between compound dose and antibacterial response
same,inhibition of Xf in vitro (in words),[3],inhibitor of Xf in vitro
"C/C=C/C(=O)c1c(O)cc(/C=C/C)oc1=O [Compound 4, 3-((E)-but-2-enoyl)-4-hydroxy-6-((E)-prop-1-en-1-yl)-2H-pyran-2-one]",inhibition of L. crescens (in words),[2],notable linear relationships between compound dose and antibacterial response
"C/C=C/c1cc(O)cc(=O)o1 [Compound 5, (E)-4-hydroxy-6-(prop-1-en-1-yl)-2H-pyran-2-one]",inhibition of Xf (in words),[1],inactive
same,diameter of inhibition,[2]; highest dose,2.6 cm
same,diameter of inhibition,[2]; lower doses,0.2 cm
same,melting point,,183 to 185 °C
"O=C1CCC(c2ccc(O)c3c2C(=O)C2OC2C3O)c2cccc(O)c21 (stereo not shown) [Compound 21, cladosporol A]",antibacterial activity (in words),[4],modest antibacterial activity
same,antibacterial activity (in words),[5],modest antibacterial activity
same,antibacterial activity (in words),[6],modest antibacterial activity
same,antibacterial activity (in words),[7],modest antibacterial activity
"CC(CCCCCCCCCCCCCCO[C@@H]1O[C@H](CO)[C@@H](O)[C@H](O)[C@@H]1O)C(O)=C1C(=O)C(C)N(C)C1=O (stereo partly shown) [Compound 24, epicoccamide A]",antibacterial activity (in words),[4],modest antibacterial activity
same,antibacterial activity (in words),[5],modest antibacterial activity
same,antibacterial activity (in words),[6],modest antibacterial activity
same,antibacterial activity (in words),[7],modest antibacterial activity
same,antibiotic activity (in words),[8],no detectable antibiotic activity
same,antibiotic activity (in words),[9],no detectable antibiotic activity
Cc1c(Cl)cccc1Nc1ccccc1C(=O)O [Tolfenamic acid],inhibition of transcriptional accessory protein (in words),[10],inhibits a transcriptional accessory protein
CO/N=C(\C(=O)N[C@@H]1C(=O)N2C(C(=O)O)=C(COC(C)=O)CS[C@H]12)c1csc(N)n1 [cefotaxime],concentration providing nearly complete inhibition of L. crescens,[11],0.7 µM
CC1(C)S[C@@H]2[C@H](NC(=O)COc3ccccc3)C(=O)N2[C@H]1C(=O)O [penicillin V],concentration providing nearly complete inhibition of L. crescens,[11],0.1 µM
